Assay results taken from ChEMBL document CHEMBL1129326, “Inhibition of DNA topoisomerase II by azaelliptitoxins functionalized in the variable substituent domain” (J Med Chem, 1996).
Activity calls are given as the source filed them. No cut-off for these calls is given here.

target: DNA topoisomerase II (Homo sapiens) (UniProt P11388+Q02880); test: Inhibitory activity against human DNA Topoisomerase-2, activity is expressed as relative DNA cleavage compared to Azatoxin by densitometric analysis; inactive; assay type: protein assay

Row | Compound | Activity
1 | COc1cc([C@@H]2c3[nH]c4ccccc4c3[C@@H](Nc3cc(OC)c(OC)c(OC)c3)[C@H]3COC(=O)N23)cc(OC)c1O | inactive
2 | COc1cc([C@@H]2c3[nH]c4ccccc4c3[C@@H](OC)[C@H]3COC(=O)N23)cc(OC)c1O | inactive
3 | COc1cc(N[C@@H]2c3c([nH]c4ccccc34)[C@@H](c3cc(OC)c(O)c(OC)c3)N3C(=O)OC[C@H]23)ccc1O | inactive
